Source: US20070128217A1 (priority 2003, published 2007)

Key:
[1] = system: antibodies in sera from SARS patients (sera 1a, 1b, 2, 6, 37, 62, London, SARS-yellow, SARS-green); assay type: binding, human; design: Binding of serum 6 to linear peptides of protein X1 of SARS-CoV Urbani / Binding of serum 37 to linear peptides of protein X1 of SARS-CoV Urbani / Binding of serum 6 to looped/cyclic peptide (PEPSCAN-ELISA) / Binding of serum 37 to looped/cyclic peptide (PEPSCAN-ELISA) / Binding of serum 37 to looped/cyclic peptides of protein X1 of SARS-CoV Urbani / Binding of serum 6 to linear peptides of protein X2 / Binding of serum 37 to linear peptides of protein X2 / Binding of serum 37 to looped/cyclic peptides of protein X2 of SARS-CoV Urbani / Binding of serum 6 to linear peptides of protein M of SARS-CoV Urbani / Binding of serum 37 to linear peptides of protein M of SARS-CoV Urbani / Binding of serum 6 to looped/cyclic peptides of protein M of SARS-CoV Urbani / Binding of serum 37 to looped/cyclic peptides of protein M of SARS-CoV Urbani / Binding of serum 6 to linear peptides of protein X3 of SARS-CoV Urbani / Binding of serum 37 to linear peptides of protein X3 of SARS-CoV Urbani / Binding of serum 37 to looped/cyclic peptides of protein X3 of SARS-CoV Urbani / Binding of serum 6 to linear peptides of protein X4 of SARS-CoV Urbani / Binding of serum 37 to linear peptides of protein X4 of SARS-CoV Urbani / Binding of serum 37 to looped/cyclic peptides of protein X4 of SARS-CoV Urbani / Binding of serum 6 to linear peptides of protein X5 of SARS-CoV Urbani / Binding of serum 37 to linear peptides of protein X5 of SARS-CoV Urbani / Binding of serum 37 to looped/cyclic peptides of protein X5 of SARS-CoV Urbani / Binding of serum 6 to linear peptides of protein N of SARS-CoV Urbani / Binding of serum 37 to linear peptides of protein N of SARS-CoV Urbani / Binding of serum 6 to linear peptide (PEPSCAN-ELISA) / Binding of serum 1a to looped/cyclic peptides of protein N of SARS-CoV Urbani / Binding of serum 1b to looped/cyclic peptides of protein N of SARS-CoV Urbani / Binding of serum 2 to looped/cyclic peptides of protein N of SARS-CoV Urbani / Binding of serum 6 to looped/cyclic peptides of protein N of SARS-CoV Urbani / Binding of serum 37 to looped/cyclic peptides of protein N of SARS-CoV Urbani / Binding of serum 62 to looped/cyclic peptides of protein N of SARS-CoV Urbani / Binding of serum London to looped/cyclic peptides of protein N of SARS-CoV Urbani / Binding of serum SARS-green to looped/cyclic peptides of protein N of SARS-CoV Urbani: unit not given here
[2] = system: control sera (pooled serum of ten healthy LUMC hospital workers; commercial negative donor pooled serum from the Dutch bloodbank); assay type: binding, human; design: Binding of Control serum LUMC to linear peptides / Binding of Control serum Blood-bank to linear peptides / Binding of Control serum LUMC to looped peptides / Binding of Control Serum Blood-Bank to Looped peptides / Binding of Control serum LUMC to linear peptides of the protein M of SARS-CoV Urbani / Binding of Control serum Blood-bank to linear peptides of the protein M of SARS-CoV Urbani / Binding of Control serum LUMC to looped peptides of the protein M of SARS-CoV Urbani / Binding of Control Serum Blood-Bank to Looped peptides of the protein M of SARS-CoV Urbani: unit not given here
[3] = system: rabbit serum obtained by immunizing a rabbit with the SARS-CoV strain Frankfurt 1; assay type: binding; design: Binding of a rabbit serum to linear peptides / Binding of a rabbit serum to looped peptides / Rabbit serum linear peptides / Rabbit serum looped peptides / Binding of a rabbit serum to linear peptides of protein N of SARS-CoV Urbani (Rabbit serum linear peptides) / Binding of a rabbit serum to looped/cyclic peptides of protein N of SARS-CoV Urbani (Rabbit serum looped peptides): unit not given here

Row | Sequence | Binding of serum 1a to linear peptides of protein X1 of SARS-CoV Urbani [1] | Binding of serum 1a to looped/cyclic peptide (PEPSCAN-ELISA) [1] | Binding of serum 1b to linear peptides of protein X1 of SARS-CoV Urbani [1] | Binding of serum 1b to looped/cyclic peptide (PEPSCAN-ELISA) [1] | Binding of serum 2 to linear peptides of protein X1 of SARS-CoV Urbani [1] | Binding of serum 2 to looped/cyclic peptide (PEPSCAN-ELISA) [1] | Binding of serum 6 to linear peptides of protein X1 of SARS-CoV Urbani [1] | Binding of serum 6 to looped/cyclic peptide (PEPSCAN-ELISA) [1] | Binding of serum 37 to linear peptides of protein X1 of SARS-CoV Urbani [1] | Binding of serum 37 to looped/cyclic peptide (PEPSCAN-ELISA) [1] | Binding of serum 62 to linear peptides of protein X1 of SARS-CoV Urbani [1] | Binding of serum 62 to looped/cyclic peptide (PEPSCAN-ELISA) [1] | Binding of serum London to linear peptides of protein X1 of SARS-CoV Urbani [1] | Binding of serum London to looped/cyclic peptide (PEPSCAN-ELISA) [1] | Binding of Control Serum Blood-Bank to Looped peptides [2] | Binding of Control serum Blood-bank to linear peptides [2] | Binding of Control serum LUMC to linear peptides [2] | Binding of Control serum LUMC to looped peptides [2] | Binding of a rabbit serum to linear peptides [3] | Binding of a rabbit serum to looped peptides [3] | also measured
1 | LFMRFFTLGSITAQP | 0.8 | 0.5 | 0.7 | 0.3 | 0.6 | 0.4 | 0.5 | 0.3 | 0.6 | 0.5 | 0.6 | 0.5 | 0.3 | 0.2 | 0.7 | 0.7 | 0.6 | 0.5 | 0.5 | 0.4 | Binding of serum SARS-green to linear peptides of protein X1 of SARS-CoV Urbani [1]: 0.2; Binding of serum SARS-green to looped/cyclic peptide (PEPSCAN-ELISA) [1]: 0.3; Binding of serum SARS-yellow to linear peptides of protein X1 of SARS-CoV Urbani [1]: 0.6; Binding of serum SARS-yellow to looped/cyclic peptide (PEPSCAN-ELISA) [1]: 0.4
2 | STNLCTHSFRKKQVR |  |  |  |  |  |  |  |  |  |  |  |  |  |  | 0.5 | 0.9 | 0.8 | 0.8 | 0.7 | 0.2 | Binding of serum 1a to looped/cyclic peptides of protein X2 of SARS-CoV Urbani [1]: 0.5; Binding of serum 1b to looped/cyclic peptides of protein X2 of SARS-CoV Urbani [1]: 0.3; Binding of serum 2 to looped/cyclic peptides of protein X2 of SARS-CoV Urbani [1]: 0.5; Binding of serum 6 to looped/cyclic peptides of protein X2 of SARS-CoV Urbani [1]: 0.6; Binding of serum 37 to looped/cyclic peptides of protein X2 of SARS-CoV Urbani [1]: 0.5; Binding of serum 62 to looped/cyclic peptides of protein X2 of SARS-CoV Urbani [1]: 0.5; Binding of serum London to looped/cyclic peptides of protein X2 of SARS-CoV Urbani [1]: 0.2; Binding of serum SARS-green to looped/cyclic peptides of protein X2 of SARS-CoV Urbani [1]: 0.2; Binding of serum SARS-yellow to looped/cyclic peptides of protein X2 of SARS-CoV Urbani [1]: 0.5; Recognition of the peptide by sera of SARS-CoV infected individuals, and form (linear, looped/cyclic) in which it is recognized [1]: recognized in linear form
3 | LPFGWLVIGVAFLAV | 0.8 | 0.5 | 0.6 | 0.3 | 0.7 | 0.4 | 0.5 | 0.3 | 0.7 | 0.6 | 0.8 | 0.6 | 0.3 | 0.2 | 0.5 | 0.7 | 0.7 | 0.4 | 2.0 | 0.5 | Binding of serum SARS-green to linear peptides of protein X1 of SARS-CoV Urbani [1]: 0.3; Binding of serum SARS-green to looped/cyclic peptide (PEPSCAN-ELISA) [1]: 0.3; Binding of serum SARS-yellow to linear peptides of protein X1 of SARS-CoV Urbani [1]: 0.7; Binding of serum SARS-yellow to looped/cyclic peptide (PEPSCAN-ELISA) [1]: 0.3
